We go through one compound from ChEMBL document CHEMBL5233227, “Allosteric inhibitors of the STAT3 signaling pathway” (Eur J Med Chem, 2020).

The structures appear in SMILES notation.

The experiment has as its target Signal transducer and activator of transcription 3 (Homo sapiens, UniProt P40763). Nature of the experiment: Inhibition of human STAT3 expressed in human HepG2 cells incubated for 1.5 hrs by luciferase assay. Format: cell-based.

Signal transducer and activator of transcription 3, sequence (P40763 whole entry): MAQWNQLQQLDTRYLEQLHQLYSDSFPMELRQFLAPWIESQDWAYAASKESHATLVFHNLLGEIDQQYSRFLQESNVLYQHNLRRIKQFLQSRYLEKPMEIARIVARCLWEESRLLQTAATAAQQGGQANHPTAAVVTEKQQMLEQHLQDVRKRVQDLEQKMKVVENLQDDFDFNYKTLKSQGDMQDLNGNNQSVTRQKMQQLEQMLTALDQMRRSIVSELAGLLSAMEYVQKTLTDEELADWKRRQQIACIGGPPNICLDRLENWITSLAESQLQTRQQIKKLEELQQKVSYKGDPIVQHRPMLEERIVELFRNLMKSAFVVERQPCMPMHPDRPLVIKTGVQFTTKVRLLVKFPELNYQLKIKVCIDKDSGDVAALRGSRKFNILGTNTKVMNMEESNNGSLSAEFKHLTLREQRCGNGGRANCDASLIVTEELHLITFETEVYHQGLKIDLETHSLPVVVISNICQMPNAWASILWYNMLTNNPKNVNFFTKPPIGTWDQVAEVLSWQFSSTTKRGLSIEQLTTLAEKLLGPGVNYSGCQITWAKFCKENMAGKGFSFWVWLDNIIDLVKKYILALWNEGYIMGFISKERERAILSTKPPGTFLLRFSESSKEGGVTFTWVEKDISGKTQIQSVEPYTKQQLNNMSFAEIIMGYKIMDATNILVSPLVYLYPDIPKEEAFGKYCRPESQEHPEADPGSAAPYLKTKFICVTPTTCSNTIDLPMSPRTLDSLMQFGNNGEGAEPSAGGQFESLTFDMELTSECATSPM

In general, IC50 refers to the concentration at which inhibition is half-maximal. As to `CC(CO)C1OC(=O)C=C2C13OC3CC13COC(=O)C1(C)CC(O)CC23C` (stereo unspecified), half-maximal inhibition (IC50) required 200 nM.
